Results as given in patent publication US6914045B2, “Glycopeptide antibiotics” (Wyeth Holdings Corporation, priority 2001, dated 2005).
Values after ≈ are worked out from the molar mass of the structure shown.

How the values were obtained:
Assay in all cases: in vitro antibacterial evaluation, MIC by broth dilution
Assay type in all cases: cell-based
Enterococcus sp. = settings: broth dilution, 18 hours at 35° C.
Procedure, shortened: (§1)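 Broth dilution per NCCLS M7-A2 in Mueller-Hinton II medium, inoculum 5×10^5 CFU/mL, antibiotic range 64-0.06 μg/mL. MIC taken as lowest concentration inhibiting growth; Gram-positive panel includes recent clinical isolates resistant to methicillin, penicillin and/or vancomycin.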

Escherichia coli = settings: 18 hours at 35° C.
Procedure, shortened: as §1

Staphylococcus sp. = settings: broth dilution, 18 hours at 35° C.
Procedure, shortened: as §1

Streptococcus sp. = settings: broth dilution, 18 hours at 35° C.
Procedure, shortened: as §1

MIC Enterococcus avium (GC 4558) (Enterococcus sp.; Enterococcus avium (GC 4558)): 32 µg/mL (≈ 22.6 µM) | MIC Enterococcus faecalis (ATCC 29212) (Enterococcus sp.; Enterococcus faecalis (ATCC 29212)): 32 µg/mL (≈ 22.6 µM) | MIC Enterococcus faecalis (GC 2242) (Enterococcus sp.; Enterococcus faecalis (GC 2242)): 32 µg/mL (≈ 22.6 µM) | MIC Enterococcus faecalis (GC 2691) (Enterococcus sp.; Enterococcus faecalis (GC 2691)): 32 µg/mL (≈ 22.6 µM) | MIC Enterococcus faecalis (GC 3059) (Enterococcus sp.; Enterococcus faecalis (GC 3059)): 32 µg/mL (≈ 22.6 µM) | MIC Enterococcus faecalis (GC 4552) (Enterococcus sp.; Enterococcus faecalis (GC 4552)): 32 µg/mL (≈ 22.6 µM) | MIC Enterococcus faecalis (GC 4553) (Enterococcus sp.; Enterococcus faecalis (GC 4553)): 32 µg/mL (≈ 22.6 µM) | MIC Enterococcus faecalis (GC 4554) (Enterococcus sp.; Enterococcus faecalis (GC 4554)): 32 µg/mL (≈ 22.6 µM) | MIC Enterococcus faecalis (GC 6189) (Enterococcus sp.; Enterococcus faecalis (GC 6189)): 32 µg/mL (≈ 22.6 µM) | MIC Enterococcus faecium (GC 2243) (Enterococcus sp.; Enterococcus faecium (GC 2243)): 32 µg/mL (≈ 22.6 µM) | MIC Enterococcus faecium (GC 4556) (Enterococcus sp.; Enterococcus faecium (GC 4556)): 32 µg/mL (≈ 22.6 µM) | MIC Enterococcus faecium (GC 4557) (Enterococcus sp.; Enterococcus faecium (GC 4557)): 16 µg/mL (≈ 11.3 µM) | MIC Enterococcus faecalis (ATCC 29212) (Enterococcus sp.; strain ATCC 29212): 32 µg/mL (≈ 22.6 µM) | MIC Enterococcus faecalis (GC 2242) (Enterococcus sp.; strain GC 2242): 32 µg/mL (≈ 22.6 µM) | MIC Enterococcus faecium (GC 2243) (Enterococcus sp.; strain GC 2243): 32 µg/mL (≈ 22.6 µM) | MIC Enterococcus faecalis (GC 2691) (Enterococcus sp.; strain GC 2691): 32 µg/mL (≈ 22.6 µM) | MIC Enterococcus faecalis (GC 3059) (Enterococcus sp.; strain GC 3059): 32 µg/mL (≈ 22.6 µM) | MIC Enterococcus faecalis (GC 4552) (Enterococcus sp.; strain GC 4552): 32 µg/mL (≈ 22.6 µM) | MIC Enterococcus faecalis (GC 4553) (Enterococcus sp.; strain GC 4553): 32 µg/mL (≈ 22.6 µM) | MIC Enterococcus faecalis (GC 4554) (Enterococcus sp.; strain GC 4554): 32 µg/mL (≈ 22.6 µM) | MIC Enterococcus faecium (GC 4556) (Enterococcus sp.; strain GC 4556): 32 µg/mL (≈ 22.6 µM) | MIC Enterococcus faecium (GC 4557) (Enterococcus sp.; strain GC 4557): 16 µg/mL (≈ 11.3 µM) | MIC Enterococcus avium (GC 4558) (Enterococcus sp.; strain GC 4558): 32 µg/mL (≈ 22.6 µM) | MIC Enterococcus faecalis (GC 6189) (Enterococcus sp.; strain GC 6189): 32 µg/mL (≈ 22.6 µM) | MIC Escherichia coli (ATCC 25922) (Escherichia coli; strain ATCC 25922): >64 µg/mL | MIC Escherichia coli (GC 4559) (Escherichia coli; strain GC 4559): >64 µg/mL | MIC Escherichia coli (GC 4560) (Escherichia coli; strain GC 4560): 32 µg/mL (≈ 22.6 µM) | MIC Staphylococcus aureus (ATCC 29213) (Staphylococcus sp.): 32 µg/mL (≈ 22.6 µM) | MIC Staphylococcus aureus (GC 1131) (Staphylococcus sp.): 32 µg/mL (≈ 22.6 µM) | MIC Staphylococcus aureus (GC 3051) (Staphylococcus sp.): 32 µg/mL (≈ 22.6 µM) | MIC Staphylococcus aureus (GC 3053) (Staphylococcus sp.): 32 µg/mL (≈ 22.6 µM) | MIC Staphylococcus aureus (GC 4541) (Staphylococcus sp.): 8 µg/mL (≈ 5.64 µM) | MIC Staphylococcus aureus (GC 4542) (Staphylococcus sp.): 32 µg/mL (≈ 22.6 µM) | MIC Staphylococcus aureus (GC 4544) (Staphylococcus sp.): 32 µg/mL (≈ 22.6 µM) | MIC Staphylococcus aureus (GC 4545) (Staphylococcus sp.): 32 µg/mL (≈ 22.6 µM) | MIC Staphylococcus aureus (GC 1131) (Staphylococcus sp.; inoculum 5×10^5 CFU/mL, strain GC 1131): 32 µg/mL (≈ 22.6 µM) | MIC Staphylococcus aureus (ATCC 29213) (Staphylococcus sp.; strain ATCC 29213): 32 µg/mL (≈ 22.6 µM) | MIC Staphylococcus aureus (GC 3051) (Staphylococcus sp.; strain GC 3051): 32 µg/mL (≈ 22.6 µM) | MIC Staphylococcus aureus (GC 3053) (Staphylococcus sp.; strain GC 3053): 32 µg/mL (≈ 22.6 µM) | MIC Staphylococcus aureus (GC 4541) (Staphylococcus sp.; strain GC 4541): 8 µg/mL (≈ 5.64 µM) | MIC Staphylococcus aureus (GC 4542) (Staphylococcus sp.; strain GC 4542): 32 µg/mL (≈ 22.6 µM) | MIC Staphylococcus aureus-SMITH (GC 4543) (Staphylococcus sp.; strain GC 4543): 32 µg/mL (≈ 22.6 µM) | MIC Staphylococcus aureus (GC 4544) (Staphylococcus sp.; strain GC 4544): 32 µg/mL (≈ 22.6 µM) | MIC Staphylococcus aureus (GC 4545) (Staphylococcus sp.; strain GC 4545): 32 µg/mL (≈ 22.6 µM) | MIC Coagulase Negative Staphylococcus (GC 4547) (Staphylococcus sp.; strain GC 4547): 32 µg/mL (≈ 22.6 µM) | MIC Coagulase Negative Staphylococcus (GC 4548) (Staphylococcus sp.; strain GC 4548): 32 µg/mL (≈ 22.6 µM) | MIC Coagulase Negative Staphylococcus (GC 4549) (Staphylococcus sp.; strain GC 4549): 32 µg/mL (≈ 22.6 µM) | MIC Coagulase Negative Staphylococcus (GC 4551) (Staphylococcus sp.; strain GC 4551): 32 µg/mL (≈ 22.6 µM) | MIC Coagulase Negative Staphylococcus (GC 6257) (Staphylococcus sp.; strain GC 6257): 32 µg/mL (≈ 22.6 µM) | MIC Staphylococcus aureus-SMITH (GC 4543) (Staphylococcus sp.; strain SMITH GC 4543): 32 µg/mL (≈ 22.6 µM) | MIC Streptococcus agalactiae (GC 4564) (Streptococcus sp.; Streptococcus agalactiae (GC 4564)): 1 µg/mL (≈ 0.705 µM) | MIC Streptococcus pneumoniae (ATCC 6301) (Streptococcus sp.; Streptococcus pneumoniae (ATCC 6301)): 0.25 µg/mL (≈ 0.176 µM) | MIC Streptococcus pneumoniae (GC 1894) (Streptococcus sp.; Streptococcus pneumoniae (GC 1894)): 0.12 µg/mL (≈ 0.0847 µM) | MIC Streptococcus pneumoniae (GC 4565) (Streptococcus sp.; Streptococcus pneumoniae (GC 4565)): 0.25 µg/mL (≈ 0.176 µM) | MIC Streptococcus pyogenes (GC 4563) (Streptococcus sp.; Streptococcus pyogenes (GC 4563)): 0.5 µg/mL (≈ 0.353 µM) | MIC Streptococcus pneumoniae (ATCC 6301) (Streptococcus sp.; strain ATCC 6301): 0.25 µg/mL (≈ 0.176 µM) | MIC Streptococcus pneumoniae (GC 1894) (Streptococcus sp.; strain GC 1894): 0.12 µg/mL (≈ 0.0847 µM) | MIC Streptococcus pyogenes (GC 4563) (Streptococcus sp.; strain GC 4563): 0.5 µg/mL (≈ 0.353 µM) | MIC Streptococcus agalactiae (GC 4564) (Streptococcus sp.; strain GC 4564): 1 µg/mL (≈ 0.705 µM) | MIC Streptococcus pneumoniae (GC 4565) (Streptococcus sp.; strain GC 4565): 0.25 µg/mL (≈ 0.176 µM)
SMILES: CC(C)=CCCC(C)C1OCC2OC(OC3C(CO)OC(Oc4ccc(CC5NC(=O)C(C(C)c6ccccc6)NC(=O)CNC(=O)C(CO)NC(=O)C(C(O)C6CNC(=N)N6C6OC(CO)C(O)C(O)C6O)NC(=O)C(C(O)C6CNC(=N)N6)NC5=O)cc4)C(O)C3O)C(O)C(O)C2O1 (stereo not shown) [Example 125]
MIC Staphylococcus haemolyticus (GC 4546) (Staphylococcus sp.; strain GC 4546): 32 µg/mL (≈ 22.6 µM)
